Laboratory results reported in PubChem BioAssay AID1918956 (Molecular Pharmacology Branch, DTP, NCI, 2023).
pIC50: −log10 of the molar value.

Tested on: OVCAR-5 complex spheroids, viability
Assay: Anticancer human tumor OVCAR-5 cell line growth inhibition;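 also: spheroids exposed to agents for seven days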;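 as to viability, T/C: 100% = DMSO vehicle control wells viability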
Details: for pIC50: curve of first compound; for viability, T/C: stronger effect = lower value; active = viability on the fitted dose curve at most 10% of control; inactive = the rest
How it was run: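 Multicellular complex spheroids of tumor cells with human endothelial cells (HUVEC) and mesenchymal stem cells; the LSD1 inhibitor iadademstat was combined with standard-of-care or investigational agents. Top concentration at or near clinical Cmax, half-log dilutions; final DMSO ≤0.25%.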

CC[C@@]1(O)C(=O)OCc2c1cc1n(c2=O)Cc2cc3c(CN(C)C)c(O)ccc3nc2-1 + NC1CCC(NC2CC2c2ccccc2)CC1
7.92: pIC50 (second compound 3.16 µM)
8.00: pIC50 (second compound 10 µM)
7.96: pIC50 (second compound 0.316 µM)
8.25: pIC50 (second compound 0.1 µM)
7.95: pIC50 (second compound 1 µM)
inactive: viability, T/C (second compound 0.1 µM, first compound 0.000316 µM) 103% | viability, T/C (second compound 0.1 µM, first compound 0.001 µM) 105% | viability, T/C (second compound 0.1 µM, first compound 0.00316 µM) 58.8% | viability, T/C (second compound 0.1 µM, first compound 0.01 µM) 50.2% | viability, T/C (second compound 0.1 µM, first compound 0.0316 µM) 48% | viability, T/C (second compound 0.1 µM, first compound 0.1 µM) 23.4% | viability, T/C (second compound 0.316 µM, first compound 0.000316 µM) 112% | viability, T/C (second compound 0.316 µM, first compound 0.001 µM) 97.7% | viability, T/C (second compound 0.316 µM, first compound 0.00316 µM) 56.5% | viability, T/C (second compound 0.316 µM, first compound 0.01 µM) 49.8% | viability, T/C (second compound 0.316 µM, first compound 0.0316 µM) 50% | viability, T/C (second compound 0.316 µM, first compound 0.1 µM) 24% | viability, T/C (second compound 1 µM, first compound 0.000316 µM) 105% | viability, T/C (second compound 1 µM, first compound 0.001 µM) 93.3% | viability, T/C (second compound 1 µM, first compound 0.00316 µM) 56.9% | viability, T/C (second compound 1 µM, first compound 0.01 µM) 51.2% | viability, T/C (second compound 1 µM, first compound 0.0316 µM) 47.7% | viability, T/C (second compound 1 µM, first compound 0.1 µM) 26.7% | viability, T/C (second compound 3.16 µM, first compound 0.000316 µM) 109% | viability, T/C (second compound 3.16 µM, first compound 0.001 µM) 98.5% | viability, T/C (second compound 3.16 µM, first compound 0.00316 µM) 62.4% | viability, T/C (second compound 3.16 µM, first compound 0.01 µM) 51.3% | viability, T/C (second compound 3.16 µM, first compound 0.0316 µM) 49.3% | viability, T/C (second compound 3.16 µM, first compound 0.1 µM) 28.2% | viability, T/C (second compound 10 µM, first compound 0.000316 µM) 91.1% | viability, T/C (second compound 10 µM, first compound 0.001 µM) 85.5% | viability, T/C (second compound 10 µM, first compound 0.00316 µM) 51.8% | viability, T/C (second compound 10 µM, first compound 0.01 µM) 49.3% | viability, T/C (second compound 10 µM, first compound 0.0316 µM) 48.7% | viability, T/C (second compound 10 µM, first compound 0.1 µM) 27.7%

CCc1c2c(nc3ccc(O)cc13)-c1cc3c(c(=O)n1C2)COC(=O)[C@]3(O)CC + NC1CCC(NC2CC2c2ccccc2)CC1
active: viability, T/C (second compound 0.1 µM, first compound 0.00949 µM) 9.21% | viability, T/C (second compound 0.1 µM, first compound 0.03 µM) 4.18% | viability, T/C (second compound 0.1 µM, first compound 0.0949 µM) 1.08% | viability, T/C (second compound 0.1 µM, first compound 0.3 µM) 0.71% | viability, T/C (second compound 0.316 µM, first compound 0.03 µM) 5.04% | viability, T/C (second compound 0.316 µM, first compound 0.0949 µM) 1.52% | viability, T/C (second compound 0.316 µM, first compound 0.3 µM) 0.83% | viability, T/C (second compound 1 µM, first compound 0.03 µM) 5.17% | viability, T/C (second compound 1 µM, first compound 0.0949 µM) 1.3% | viability, T/C (second compound 1 µM, first compound 0.3 µM) 0.78% | viability, T/C (second compound 3.16 µM, first compound 0.03 µM) 5.77% | viability, T/C (second compound 3.16 µM, first compound 0.0949 µM) 1.49% | viability, T/C (second compound 3.16 µM, first compound 0.3 µM) 0.71% | viability, T/C (second compound 10 µM, first compound 0.03 µM) 5.97% | viability, T/C (second compound 10 µM, first compound 0.0949 µM) 1.81% | viability, T/C (second compound 10 µM, first compound 0.3 µM) 2.3%
inactive: viability, T/C (second compound 0.1 µM, first compound 0.000949 µM) 36.5% | viability, T/C (second compound 0.1 µM, first compound 0.003 µM) 20.8% | viability, T/C (second compound 0.316 µM, first compound 0.000949 µM) 37% | viability, T/C (second compound 0.316 µM, first compound 0.003 µM) 21.9% | viability, T/C (second compound 0.316 µM, first compound 0.00949 µM) 10.2% | viability, T/C (second compound 1 µM, first compound 0.000949 µM) 39.9% | viability, T/C (second compound 1 µM, first compound 0.003 µM) 25.3% | viability, T/C (second compound 1 µM, first compound 0.00949 µM) 11.1% | viability, T/C (second compound 3.16 µM, first compound 0.000949 µM) 41.6% | viability, T/C (second compound 3.16 µM, first compound 0.003 µM) 24.6% | viability, T/C (second compound 3.16 µM, first compound 0.00949 µM) 12.8% | viability, T/C (second compound 10 µM, first compound 0.000949 µM) 41% | viability, T/C (second compound 10 µM, first compound 0.003 µM) 25.4% | viability, T/C (second compound 10 µM, first compound 0.00949 µM) 12.4%
> 9.02: pIC50 (second compound 0.1 µM) | pIC50 (second compound 0.316 µM) | pIC50 (second compound 1 µM) | pIC50 (second compound 3.16 µM) | pIC50 (second compound 10 µM)
